In ChEMBL document CHEMBL4038324, “Amidoalkylindoles as Potent and Selective Cannabinoid Type 2 Receptor Agonists with in Vivo Efficacy in a Mouse Model of Multiple Sclerosis” (J Med Chem, 2017):
Active and inactive are the calls of the source. No cut-off for these calls is given here.

Key:
[1] = system: Mus musculus; experiment: In vivo partial agonist activity at CB2 receptor in EAE C57BL/6 mouse model assessed as reduction in clinical signs at 10 to 30 mg/kg, ip administered from day 3 after immunization with MOG until day 27; type: functional, organism-based
[2] = target: T1, Cannabinoid receptor 2 (Homo sapiens, UniProt P34972); experiment: Agonist activity at human CB2 receptor expressed in CHO cells assessed as induction of Ca2+ flux after 10 mins by Fluor-4 AM dye based assay; type: functional, cell-based
[3] = Cmax in C57 mouse at 10 mg/kg, ip measured up to 2 hrs by LC-MS/MS analysis; type: ADME, organism-based; set-up: dose 10 mg/kg, route intraperitoneal; settings: in vivo
[4] = Tmax in C57 mouse at 10 mg/kg, ip measured up to 2 hrs by LC-MS/MS analysis; type: ADME, organism-based; settings: in vivo
[5] = Half life in C57 mouse at 10 mg/kg, ip measured up to 2 hrs by LC-MS/MS analysis; type: ADME, organism-based; settings: in vivo
[6] = target: T1, Cannabinoid receptor 2; experiment: Agonist activity at human CB2 receptor expressed in CHO cells assessed as inhibition of forskolin-induced cAMP accumulation preincubated for 20 mins followed by forskolin addition measured after 30 mins by HTRF assay; type: functional, cell-based
[7] = system: Mus musculus; experiment: AUMC (0 to t) in C57 mouse at 10 mg/kg, ip measured up to 2 hrs by LC-MS/MS analysis; type: ADME, organism-based; settings: in vivo
[8] = target: T1, Cannabinoid receptor 2; experiment: Agonist activity at human CB2 receptor expressed in CHO cells assessed as induction of Ca2+ flux after 10 mins by Fluor-4 AM dye based assay relative to CP55940; type: functional, cell-based
[9] = target: T2, Cannabinoid receptor 1 (Homo sapiens, UniProt P21554); experiment: Agonist activity at human CB1 receptor expressed in CHO cells assessed as induction of Ca2+ flux at 10 uM after 10 mins by Fluor-4 AM dye based assay; type: cell-based
[10] = system: Mus musculus; experiment: AUMC (0 to infinity) in C57 mouse at 10 mg/kg, ip measured up to 2 hrs by LC-MS/MS analysis; type: ADME, organism-based; settings: in vivo
[11] = Ratio of Cmax in C57 mouse at 10 mg/kg, ip to EC50 for human CB2 receptor expressed in CHO cells assessed as induction of Ca2+ flux
[12] = system: Mus musculus; experiment: In vivo partial agonist activity at CB2 receptor in EAE C57BL/6 mouse model assessed as reduction in leukocyte infiltration in white matter region at 10 to 30 mg/kg, ip administered from day 3 after immunization with MOG until day 19 by H and E staining based assay; type: functional, organism-based
[13] = target: T3, Cannabinoid receptor 1 (CB1) (Homo sapiens, UniProt P21554); experiment: Antagonist activity at human CB1 receptor expressed in CHO cells assessed as inhibition of CP55940-induced Ca2+ flux at 10 uM preincubated for 10 mins followed by agonist addition by Fluor-4 AM dye based assay; type: cell-based; settings: CHO cells expressing human CB1 receptor
[14] = target: T1, Cannabinoid receptor 2; experiment: Antagonist activity at human CB2 receptor expressed in CHO cells assessed as inhibition of CP55940-induced Ca2+ flux at 10 uM preincubated for 10 mins followed by agonist addition by Fluor-4 AM dye based assay; type: functional, cell-based
[15] = AUC (0 to infinity) in C57 mouse at 10 mg/kg, ip measured up to 2 hrs by LC-MS/MS analysis; type: ADME, organism-based; set-up: dose 10 mg/kg, time infinity, route intraperitoneal; settings: in vivo
[16] = MRT in C57 mouse at 10 mg/kg, ip measured up to 2 hrs by LC-MS/MS analysis; type: ADME, organism-based; settings: in vivo
[17] = AUC (0 to t) in C57 mouse at 10 mg/kg, ip measured up to 2 hrs by LC-MS/MS analysis; type: ADME, organism-based; set-up: dose 10 mg/kg, time < 2 hr, route intraperitoneal; settings: in vivo
[18] = Elimination rate constant in C57 mouse at 10 mg/kg, ip measured up to 2 hrs by LC-MS/MS analysis; type: ADME, organism-based; settings: in vivo
[19] = system: Mus musculus; experiment: In vivo partial agonist activity at CB2 receptor in EAE C57BL/6 mouse model assessed as reduction in extensive demyelination in white matter at 10 to 30 mg/kg, ip administered from day 3 after immunization with MOG until day 19 by Luxol fast blue staining based assay; type: functional, organism-based
[20] = target: T3, Cannabinoid receptor 1 (CB1); experiment: Agonist activity at human CB1 receptor expressed in CHO cells assessed as induction of Ca2+ flux after 10 mins by Fluor-4 AM dye based assay relative to CP55940; type: cell-based; settings: CHO cells expressing human CB1 receptor
[21] = target: T1, Cannabinoid receptor 2; experiment: Agonist activity at human N-terminal HA-tagged CB2 receptor expressed in mouse AtT20 cells by FLIPR membrane potential assay; type: cell-based
[22] = target: Cannabinoid receptor 1 (Rattus norvegicus, UniProt P20272); experiment: Agonist activity at rat CB1 receptor expressed in mouse AtT20 cells by FLIPR membrane potential assay; type: cell-based
[23] = target: T2, Cannabinoid receptor 1; experiment: Agonist activity at human CB1 receptor expressed in CHO cells assessed as induction of Ca2+ flux after 10 mins by Fluor-4 AM dye based assay; type: cell-based

T1 sequence (P34972 whole entry): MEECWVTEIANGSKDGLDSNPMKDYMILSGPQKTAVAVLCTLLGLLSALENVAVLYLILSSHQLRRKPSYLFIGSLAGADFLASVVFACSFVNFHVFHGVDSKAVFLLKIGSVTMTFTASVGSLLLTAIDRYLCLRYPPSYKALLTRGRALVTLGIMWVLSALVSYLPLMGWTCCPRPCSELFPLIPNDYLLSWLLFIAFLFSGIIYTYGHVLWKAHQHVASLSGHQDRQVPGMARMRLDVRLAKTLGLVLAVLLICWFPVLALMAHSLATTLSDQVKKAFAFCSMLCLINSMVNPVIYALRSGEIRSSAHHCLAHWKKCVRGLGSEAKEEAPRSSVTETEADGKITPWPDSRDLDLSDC
T3 sequence (P21554 whole entry): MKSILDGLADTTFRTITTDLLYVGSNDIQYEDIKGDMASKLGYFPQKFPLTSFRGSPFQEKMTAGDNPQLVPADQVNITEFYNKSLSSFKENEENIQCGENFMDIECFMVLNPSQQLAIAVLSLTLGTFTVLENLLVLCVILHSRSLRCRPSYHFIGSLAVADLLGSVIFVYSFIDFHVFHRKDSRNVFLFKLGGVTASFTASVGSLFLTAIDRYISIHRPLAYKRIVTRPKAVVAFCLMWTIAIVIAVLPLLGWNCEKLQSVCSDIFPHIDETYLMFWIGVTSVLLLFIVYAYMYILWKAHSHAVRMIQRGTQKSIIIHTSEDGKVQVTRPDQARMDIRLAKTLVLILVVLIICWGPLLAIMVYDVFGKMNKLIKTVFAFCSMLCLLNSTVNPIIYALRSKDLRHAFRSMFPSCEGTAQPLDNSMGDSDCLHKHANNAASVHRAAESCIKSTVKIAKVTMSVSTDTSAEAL
T2 sequence (P21554 whole entry): as above
Cannabinoid receptor 1 (Rattus norvegicus, UniProt P20272), sequence (P20272 whole entry): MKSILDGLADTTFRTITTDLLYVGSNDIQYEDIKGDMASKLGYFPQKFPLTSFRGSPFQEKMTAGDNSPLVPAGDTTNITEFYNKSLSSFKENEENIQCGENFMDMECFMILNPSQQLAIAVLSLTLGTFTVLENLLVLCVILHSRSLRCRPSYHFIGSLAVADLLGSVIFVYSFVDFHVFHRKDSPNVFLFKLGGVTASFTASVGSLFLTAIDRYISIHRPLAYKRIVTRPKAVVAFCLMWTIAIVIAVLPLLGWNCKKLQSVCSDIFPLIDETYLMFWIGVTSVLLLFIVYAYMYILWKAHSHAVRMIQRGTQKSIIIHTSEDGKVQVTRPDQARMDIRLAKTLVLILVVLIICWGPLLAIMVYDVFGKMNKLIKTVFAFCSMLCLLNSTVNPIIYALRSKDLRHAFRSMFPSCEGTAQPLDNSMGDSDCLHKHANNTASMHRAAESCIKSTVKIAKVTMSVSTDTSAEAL

For O=C(NC12CC3CC(CC(C3)C1)C2)c1cc2ccccc2n1CCCCO, the Activity [1] was “Active”, the EC50 [2] was 120 nM and the Cmax [3] was 350 ng/mL. It also gave a Tmax [4] of 0.25 h, a half-life [5] of 1.04 h and an EC50 [6] of 142 nM. For the same compound, the AUMCt [7] was 248 hr.hr.ng/ml, the Emax [8] was 85% and the Activity [9] was < 50%. The AUMC [10] was 637 hr.hr.ng/ml, the Ratio [11] was 8 and the Activity [12] was “Active”. The inhibition at 10 min, 10 µM [13] was < 50%, the inhibition [14] was < 50% and the AUC(0-inf) [15] was 428 ng·h/mL. The MRT [16] was 1.51 h, the AUC(0-t) at 2 h [17] was 317 ng·h/mL and the k el at 2 h [18] was 0.000189 s⁻¹. For the same compound, the Activity [19] was “Active”.

For CCCCCn1cc(C(=O)NC23CC4CC(CC(C4)C2)C3)c2ccccc21, the EC50 [2] was 59 nM, the Emax [8] was 66.3% and the Emax at 10 min [20] was 68.3%. For the same compound, the EC50 [21] was 29 nM, the EC50 [22] was 34 nM and the EC50 [23] was 39 nM. The inhibition at 10 min, 10 µM [13] was < 50% and the inhibition [14] was < 50%.
